Experimental data: ChEMBL document CHEMBL1201862, “PubChem BioAssay data set” (2004)
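Compound exposure: 48 hours, 5 concentrations, 96-well plates. GI50 is the concentration that inhibits growth by half.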 Active and inactive are the calls of the source. Cut-off read from the data, not from the text of the source: active = GI50 up to about 1.1 µM and inactive = higher.

Experiments:
Assay in all cases: NCI-60 cell line screen, 48 h
[1] = system: CCRF-CEM
[2] = system: DU-145
[3] = system: HCT-15
[4] = system: K562
[5] = system: MDA-MB-435
[6] = system: MDA-N
[7] = system: Malme-3M
[8] = system: NCI-H23
[9] = system: NCI/ADR-RES
[10] = system: OVCAR-8
[11] = system: RXF 393
[12] = system: SK-MEL-2
[13] = system: SK-OV-3
[14] = system: SN12C
[15] = system: SNB-75
[16] = system: Hs-578T
[17] = system: LOX IMVI
[18] = system: TK-10

Measured: GI50

N#CC1(C#N)C(c2ccccc2)NC23CCCCC2C1(C#N)C(=O)N3 (stereo not drawn)
inactive: [1] 51.6 µM | [2] > 100 µM | [4] > 100 µM | [5] > 100 µM | [6] > 100 µM | [7] > 100 µM | [8] > 100 µM | [9] > 100 µM | [10] > 100 µM | [11] > 100 µM | [12] > 100 µM | [13] > 100 µM | [14] > 100 µM | [15] > 100 µM
> 100 µM: [3]

C/C(C[n+]1ccccc1)=N\N=C(N)N
> 100 µM: [3]
inactive: [1] > 100 µM | [2] > 100 µM | [16] > 100 µM | [4] > 100 µM | [17] > 100 µM | [5] > 100 µM | [6] > 100 µM | [7] > 100 µM | [8] > 100 µM | [9] > 100 µM | [10] > 100 µM | [11] > 100 µM | [12] 73.8 µM | [13] > 100 µM | [14] > 100 µM | [15] > 100 µM | [18] > 100 µM

Nc1ccc(S(=O)(=O)c2ccc(NCN3C(=O)NC(=O)C(=O)C3=O)cc2)cc1 [ALLANTODAPSONE]
inactive: [1] 95.7 µM | [16] > 100 µM | [4] > 100 µM | [17] > 100 µM | [5] > 100 µM | [6] > 100 µM | [7] > 100 µM | [8] > 100 µM | [9] > 100 µM | [10] > 100 µM | [11] > 100 µM | [12] > 100 µM | [14] > 100 µM | [18] > 100 µM
> 100 µM: [3]

O=C1CCCC1C(O)(C(F)(F)Cl)C(F)(F)Cl (stereo not drawn)
inactive: [1] > 10 µM | [2] > 10 µM | [16] > 10 µM | [4] > 10 µM | [17] > 10 µM | [5] > 10 µM | [6] > 10 µM | [7] > 10 µM | [8] > 10 µM | [9] > 10 µM | [10] > 10 µM | [11] > 10 µM | [12] > 10 µM | [13] > 10 µM | [14] > 10 µM | [15] > 10 µM | [18] > 10 µM
> 10 µM: [3]

CC(=O)c1ccc(NC(=O)/C(CC(=O)/C=C/c2ccccc2)=N/NC(N)=S)cc1
60.5 µM: [3]
inactive: [16] > 100 µM | [4] 75.3 µM | [17] > 100 µM | [5] > 100 µM | [6] > 100 µM | [7] > 100 µM | [8] 60 µM | [9] 50 µM | [10] 87.7 µM | [11] > 100 µM | [12] > 100 µM | [13] > 100 µM | [14] > 100 µM | [15] > 100 µM | [18] > 100 µM

O=C(/C=C/c1ccccc1)Oc1ccc(C(=O)/C=C/c2ccccc2)cc1
inactive: [1] 3.3 µM | [2] 10.3 µM | [16] 23.3 µM | [4] 3.4 µM | [17] 4.98 µM | [5] 4.65 µM | [6] 6.3 µM | [7] > 10 µM | [8] 10.6 µM | [9] 12.1 µM | [10] 10.2 µM | [11] 23.1 µM | [12] 22.4 µM | [13] 21.4 µM | [14] 10.3 µM | [15] 12.5 µM | [18] 14.5 µM
4.29 µM: [3]

C[Si](C)(N[Si](C)(C)OCCc1ccccc1)OCCc1ccccc1
> 100 µM: [3]
inactive: [1] > 100 µM | [2] > 100 µM | [17] > 100 µM | [5] > 100 µM | [6] > 100 µM | [8] > 100 µM | [9] > 100 µM | [10] > 100 µM | [11] > 100 µM | [12] > 100 µM | [13] > 100 µM | [14] > 100 µM | [15] > 100 µM | [18] > 100 µM

Cc1cc(C)c2c(O)cc(-c3cccc4ccccc34)nc2n1
active: [1] 0.719 µM | [16] 1.09 µM | [4] 0.386 µM | [17] 0.628 µM | [5] 0.172 µM | [6] 0.218 µM | [7] 0.28 µM | [9] 0.52 µM | [11] 0.746 µM | [12] 0.291 µM | [13] 0.462 µM | [15] 0.317 µM
0.468 µM: [3]
inactive: [2] 2.71 µM | [8] 2.13 µM | [10] 1.14 µM | [14] 2.78 µM | [18] > 32.4 µM

COC(=O)/C=C1/N=C(N(C)/N=C/c2ccccc2)NC1=O
inactive: [1] > 100 µM | [2] > 100 µM | [16] > 100 µM | [4] > 100 µM | [17] > 100 µM | [6] > 100 µM | [7] > 100 µM | [8] > 100 µM | [9] > 100 µM | [10] > 100 µM | [11] > 100 µM | [12] > 100 µM | [13] > 100 µM | [14] > 100 µM | [15] > 100 µM | [18] > 100 µM
> 100 µM: [3]

COc1oc(C2C/C(=C/C(C)=C/C(C)=C/C(C)=C/c3ccc([N+](=O)[O-])cc3)CO2)c(C)c(=O)c1C (stereo not drawn)
active: [4] < 0.01 µM
5.64 µM: [3]
inactive: [1] 2.63 µM | [2] 8.2 µM | [16] 5.89 µM | [17] 4.02 µM | [5] 3.01 µM | [6] 2.74 µM | [7] 3.61 µM | [8] 1.79 µM | [10] 1.52 µM | [11] 17.9 µM | [12] 23.9 µM | [13] 12.9 µM | [14] 2.57 µM | [15] 15.4 µM | [18] 10 µM

CCOC(=O)c1c(Cl)nc2ccccc2c1N=[N+]=[N-]
inactive: [1] 41 µM | [16] 24.9 µM | [4] 69.5 µM | [17] 20.5 µM | [5] 21.1 µM | [6] 21 µM | [7] 34.8 µM | [8] 27.7 µM | [11] 44.6 µM | [12] 19.2 µM | [13] 70.5 µM | [14] 16.8 µM | [18] 31.9 µM
18.6 µM: [3]

O=C(Nc1nccs1)c1c(O)nc2sccn2c1=O
inactive: [1] > 10 µM | [2] > 10 µM | [16] > 10 µM | [17] > 10 µM | [5] > 10 µM | [6] > 10 µM | [7] > 10 µM | [8] > 10 µM | [9] > 10 µM | [10] > 10 µM | [11] > 10 µM | [12] > 10 µM | [13] > 10 µM | [14] > 10 µM | [15] > 10 µM | [18] > 10 µM
> 10 µM: [3]

CC(Cc1ccccc1)NC1=NCCO1 (stereo not drawn)
inactive: [16] 29.3 µM | [17] 18.2 µM | [6] 25.9 µM | [8] 24.9 µM | [10] 48.1 µM | [11] 52.5 µM | [12] 39.6 µM | [13] > 100 µM | [14] 21.8 µM | [15] 43.3 µM
96.4 µM: [3]

O=C1CC(=O)NC(NN2C(=O)/C(=C/c3ccc(Cl)c(Cl)c3)N=C2c2ccccc2)=N1
30.3 µM: [3]
inactive: [1] 11.9 µM | [2] 48.2 µM | [16] 18.4 µM | [4] 13.7 µM | [5] 27 µM | [6] 23.9 µM | [7] 34.8 µM | [8] 26.7 µM | [9] 19.8 µM | [10] 34 µM | [11] 24.8 µM | [12] 14.1 µM | [13] 46.8 µM | [14] 17.3 µM | [15] 24 µM | [18] 41.9 µM

NS(=O)(=O)c1ccc(/N=N/c2ccc(O)c(C(=O)O)c2)cc1 [SALAZOSULFAMIDE]
> 100 µM: [3]
inactive: [2] > 100 µM | [16] 23.6 µM | [4] > 100 µM | [5] > 100 µM | [6] > 100 µM | [7] 52.2 µM | [8] > 100 µM | [9] > 100 µM | [10] > 100 µM | [11] > 100 µM | [12] 20.7 µM | [13] > 100 µM | [14] > 100 µM | [15] 69 µM | [18] > 100 µM

CCc1ccc2nc(-c3ccc(O)cc3)sc2c1
15.1 µM: [3]
inactive: [2] 15 µM | [4] 19.6 µM | [17] 16.3 µM | [5] 19.2 µM | [6] 18.5 µM | [7] 17.3 µM | [8] 16.1 µM | [9] 13.5 µM | [10] 19.5 µM | [12] 16.5 µM | [13] 16.7 µM | [14] 14.6 µM | [18] 17.9 µM

CC(=O)OC1CC[C@]2(C)C3CC[C@@]4(C)C(CCC4[C@H](C)CCCC(C)C)[C@@H]3CCC2(Br)C1 (stereo partly drawn)
15.1 µM: [3]
inactive: [1] 10.2 µM | [2] > 50 µM | [16] 10.1 µM | [4] 15.5 µM | [17] 11.6 µM | [5] 8.83 µM | [6] 20.1 µM | [7] 10.9 µM | [8] 13 µM | [9] 41 µM | [10] 10.8 µM | [11] 12.1 µM | [13] > 50 µM | [14] 22.5 µM | [15] > 50 µM | [18] 12.8 µM
